Results: ChEMBL document CHEMBL1909046, “DrugMatrix in vitro pharmacology data”

What was measured:
[1] = biological target: T1, Angiotensin-converting enzyme (Oryctolagus cuniculus, UniProt P12822); type: tissue-based, Lung;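 note: enzymatic inhibition of angiotensin-converting enzyme measured with FAPGG as the substrate; in other assays of this panel Not Active means under 50% inhibition at 10 µM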
T1 sequence (P12822 whole entry): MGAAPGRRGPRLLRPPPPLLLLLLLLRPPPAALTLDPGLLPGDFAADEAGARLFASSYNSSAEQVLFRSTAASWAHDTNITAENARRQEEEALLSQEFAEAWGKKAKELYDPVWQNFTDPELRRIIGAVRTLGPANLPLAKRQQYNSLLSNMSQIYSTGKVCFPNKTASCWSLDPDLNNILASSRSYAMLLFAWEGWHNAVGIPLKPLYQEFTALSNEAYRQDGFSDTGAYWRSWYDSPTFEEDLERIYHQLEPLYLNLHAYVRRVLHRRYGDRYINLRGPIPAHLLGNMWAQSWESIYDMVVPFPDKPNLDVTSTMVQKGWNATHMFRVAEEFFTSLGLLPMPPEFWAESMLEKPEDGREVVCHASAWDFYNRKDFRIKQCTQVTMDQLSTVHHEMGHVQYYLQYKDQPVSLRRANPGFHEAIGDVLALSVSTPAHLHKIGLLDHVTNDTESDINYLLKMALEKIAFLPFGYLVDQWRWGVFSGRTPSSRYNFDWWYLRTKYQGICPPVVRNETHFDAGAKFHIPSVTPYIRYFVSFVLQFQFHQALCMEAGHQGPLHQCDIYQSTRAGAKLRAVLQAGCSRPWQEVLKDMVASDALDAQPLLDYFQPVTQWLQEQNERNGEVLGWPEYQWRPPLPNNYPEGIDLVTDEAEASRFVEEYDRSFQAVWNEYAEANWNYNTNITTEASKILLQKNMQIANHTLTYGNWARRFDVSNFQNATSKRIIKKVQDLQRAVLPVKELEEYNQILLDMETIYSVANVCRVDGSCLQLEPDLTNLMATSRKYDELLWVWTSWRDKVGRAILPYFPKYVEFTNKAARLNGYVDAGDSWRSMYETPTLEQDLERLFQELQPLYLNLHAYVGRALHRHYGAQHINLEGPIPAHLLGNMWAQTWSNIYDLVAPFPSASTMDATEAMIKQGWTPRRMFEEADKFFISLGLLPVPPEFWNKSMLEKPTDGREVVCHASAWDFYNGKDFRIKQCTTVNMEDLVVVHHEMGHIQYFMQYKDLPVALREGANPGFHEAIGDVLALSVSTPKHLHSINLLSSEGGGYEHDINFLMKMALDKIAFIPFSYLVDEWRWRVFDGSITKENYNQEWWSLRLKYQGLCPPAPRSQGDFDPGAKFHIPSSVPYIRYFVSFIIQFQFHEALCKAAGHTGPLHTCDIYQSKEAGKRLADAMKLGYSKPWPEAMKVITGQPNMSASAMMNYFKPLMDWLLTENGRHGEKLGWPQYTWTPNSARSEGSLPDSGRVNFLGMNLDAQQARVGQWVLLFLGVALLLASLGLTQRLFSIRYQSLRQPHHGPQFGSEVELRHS

[2] = DRUGMATRIX: GABAA, Chloride Channel, TBOB radioligand binding (ligand: [3H] TBOB); type: cell membranes, Rattus norvegicus, Wistar, Cerebral cortex, Membrane; settings: Not Active = under 50% inhibition at 10 µM
[3] = biological target: Beta-1 adrenergic receptor (Homo sapiens, UniProt P08588); assay: DRUGMATRIX: Adrenergic beta1 radioligand binding (ligand: [125I] Cyanopindolol); type: cell membranes, CHO-K1, Membrane; settings: Not Active = under 50% inhibition at 10 µM; for Ki: read-out: Ki
Chain of Beta-1 adrenergic receptor (P08588 whole entry): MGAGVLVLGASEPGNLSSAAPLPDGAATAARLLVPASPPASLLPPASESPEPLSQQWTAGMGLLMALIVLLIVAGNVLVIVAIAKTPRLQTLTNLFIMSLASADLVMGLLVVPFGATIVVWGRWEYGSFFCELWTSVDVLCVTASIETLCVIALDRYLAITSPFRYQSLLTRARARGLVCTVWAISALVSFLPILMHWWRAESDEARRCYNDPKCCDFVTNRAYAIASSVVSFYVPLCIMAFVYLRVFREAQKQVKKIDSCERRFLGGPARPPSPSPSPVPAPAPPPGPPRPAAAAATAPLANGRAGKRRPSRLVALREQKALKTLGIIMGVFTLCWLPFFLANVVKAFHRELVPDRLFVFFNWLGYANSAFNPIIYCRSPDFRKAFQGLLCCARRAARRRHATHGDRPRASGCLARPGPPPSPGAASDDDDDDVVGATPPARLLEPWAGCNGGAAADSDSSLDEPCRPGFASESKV

[4] = biological target: T2, Vasoactive intestinal polypeptide receptor 1 (Homo sapiens, UniProt P32241); type: cell membranes, Membrane; settings: ht-29; note: in other assays of this panel Not Active means under 50% inhibition at 10 µM
T2 sequence (P32241 whole entry): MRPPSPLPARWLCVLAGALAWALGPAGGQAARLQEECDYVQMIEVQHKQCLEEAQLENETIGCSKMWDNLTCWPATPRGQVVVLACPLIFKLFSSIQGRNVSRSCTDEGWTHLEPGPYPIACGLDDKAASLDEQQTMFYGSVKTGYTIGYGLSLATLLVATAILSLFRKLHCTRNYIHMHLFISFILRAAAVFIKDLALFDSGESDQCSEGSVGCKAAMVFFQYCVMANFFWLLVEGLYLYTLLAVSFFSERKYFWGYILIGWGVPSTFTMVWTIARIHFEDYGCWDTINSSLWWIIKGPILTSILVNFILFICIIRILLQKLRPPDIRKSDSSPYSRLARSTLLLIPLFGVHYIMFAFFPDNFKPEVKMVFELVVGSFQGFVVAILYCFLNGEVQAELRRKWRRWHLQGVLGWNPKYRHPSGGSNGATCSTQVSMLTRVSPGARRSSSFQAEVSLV

Histamine H2 receptor = Histamine H2 receptor (Homo sapiens, UniProt P25021); type: cell membranes, CHO-K1, Membrane; note: in other assays of this panel Not Active means under 50% inhibition at 10 µM
Chain of Histamine H2 receptor (P25021 whole entry): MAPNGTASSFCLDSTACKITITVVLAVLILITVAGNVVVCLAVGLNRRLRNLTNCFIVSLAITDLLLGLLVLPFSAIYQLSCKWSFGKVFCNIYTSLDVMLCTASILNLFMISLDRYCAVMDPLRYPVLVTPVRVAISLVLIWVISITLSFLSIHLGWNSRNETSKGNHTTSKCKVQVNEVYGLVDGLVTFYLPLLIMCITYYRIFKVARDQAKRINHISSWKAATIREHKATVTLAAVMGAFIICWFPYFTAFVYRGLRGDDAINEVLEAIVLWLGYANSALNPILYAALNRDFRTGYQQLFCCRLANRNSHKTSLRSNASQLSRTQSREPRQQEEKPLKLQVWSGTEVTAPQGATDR

[5] = DRUGMATRIX: Glutamate, NMDA, Agonism radioligand binding (ligand: [3H] CGP-39653); type: cell membranes, Rattus norvegicus, Wistar, Cerebral cortex, Membrane; settings: Not Active = under 50% inhibition at 10 µM
Adenosine receptor A2a = Adenosine receptor A2a (Homo sapiens, UniProt P29274); assay: DRUGMATRIX: Adenosine A2A radioligand binding (ligand: […]); type: cell membranes, HEK293, Membrane; settings: hek293; Not Active = under 50% inhibition at 10 µM
Chain of Adenosine receptor A2a (P29274 whole entry): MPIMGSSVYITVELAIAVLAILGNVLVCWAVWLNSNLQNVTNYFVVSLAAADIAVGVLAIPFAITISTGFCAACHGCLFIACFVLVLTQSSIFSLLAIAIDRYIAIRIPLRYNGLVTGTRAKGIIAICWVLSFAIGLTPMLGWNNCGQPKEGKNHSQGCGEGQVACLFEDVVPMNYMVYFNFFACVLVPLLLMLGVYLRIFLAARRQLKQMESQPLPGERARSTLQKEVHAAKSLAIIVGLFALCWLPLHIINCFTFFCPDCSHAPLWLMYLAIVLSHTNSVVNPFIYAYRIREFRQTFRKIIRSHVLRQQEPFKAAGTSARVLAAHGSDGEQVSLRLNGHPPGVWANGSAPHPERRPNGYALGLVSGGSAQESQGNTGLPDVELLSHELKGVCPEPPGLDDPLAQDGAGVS

Cc1cc2c(OCC(CNC(C)(C)C)OC(=O)c3ccccc3)cccc2[nH]1 (centres undefined) [BOPINDOLOL]
47 nM: IC50 ([3]; read-out: IC50)
27 nM: Ki [3]
Not Active: IC50 [1] | IC50 [2] | Ki [2] | IC50 [4] | IC50 (Histamine H2 receptor; cho-k1) | IC50 [5] | Ki [5] | IC50 (Adenosine receptor A2a)

Brc1c(NC2=NCCN2)ccc2nccnc12 [BRIMONIDINE]
Not Active: IC50 [1] | IC50 [2] | Ki [2] | IC50 ([3]; cho-k1) | IC50 [4] | IC50 (Histamine H2 receptor; cho-k1) | IC50 [5] | Ki [5] | IC50 (Adenosine receptor A2a)

CN(C)[C@@H]1C(O)=C(C(N)=O)C(=O)[C@@]2(O)C(O)=C3C(=O)c4c(O)ccc(Cl)c4[C@@](C)(O)[C@H]3C[C@@H]12 [CHLORTETRACYCLINE]
Not Active: IC50 [1] | IC50 [2] | Ki [2] | IC50 ([3]; cho-k1) | IC50 [4] | IC50 (Histamine H2 receptor; cho-k1) | IC50 [5] | Ki [5] | IC50 (Adenosine receptor A2a)

COc1cc(N)c(Cl)cc1C(=O)NC1CCN(CCCOc2ccc(F)cc2)CC1OC (centres undefined) [CISAPRIDE]
Not Active: IC50 [1] | IC50 [2] | Ki [2] | IC50 ([3]; cho-k1) | IC50 [4] | IC50 (Histamine H2 receptor; cho-k1) | IC50 [5] | Ki [5] | IC50 (Adenosine receptor A2a)

CCC(=O)O[C@]1(C(=O)CCl)[C@@H](C)C[C@H]2[C@@H]3CCC4=CC(=O)C=C[C@]4(C)[C@@]3(F)[C@@H](O)C[C@@]21C [CLOBETASOL PROPIONATE]
Not Active: IC50 [1] | IC50 [2] | Ki [2] | IC50 ([3]; cho-k1) | IC50 [4] | IC50 (Histamine H2 receptor; cho-k1) | IC50 [5] | Ki [5] | IC50 (Adenosine receptor A2a)

O=C1CN=C(c2ccccc2Cl)c2cc([N+](=O)[O-])ccc2N1 [CLONAZEPAM]
Not Active: IC50 [1] | IC50 [2] | Ki [2] | IC50 ([3]; cho-k1) | IC50 [4] | IC50 (Histamine H2 receptor; cho-k1) | IC50 [5] | Ki [5] | IC50 (Adenosine receptor A2a)

Nc1ccn([C@@H]2O[C@H](CO)[C@@H](O)[C@@H]2O)c(=O)n1 [CYTARABINE]
Not Active: IC50 [1] | IC50 [2] | Ki [2] | IC50 ([3]; cho-k1) | IC50 [4] | IC50 (Histamine H2 receptor; cho-k1) | IC50 [5] | Ki [5] | IC50 (Adenosine receptor A2a)

C[C@@H]1C[C@H]2[C@@H]3CCC4=CC(=O)C=C[C@]4(C)[C@@]3(F)[C@@H](O)C[C@]2(C)[C@H]1C(=O)CO [DESOXIMETASONE]
Not Active: IC50 [1] | IC50 [2] | Ki [2] | IC50 ([3]; cho-k1) | IC50 [4] | IC50 (Histamine H2 receptor; cho-k1) | IC50 [5] | Ki [5] | IC50 (Adenosine receptor A2a)

C[C@@H]1C[C@H]2[C@@H]3CCC4=CC(=O)C=C[C@]4(C)[C@@]3(F)[C@@H](O)C[C@]2(C)[C@@]1(O)C(=O)CO [DEXAMETHASONE]
Not Active: IC50 [1] | IC50 [2] | Ki [2] | IC50 ([3]; cho-k1) | IC50 [4] | IC50 (Histamine H2 receptor; cho-k1) | IC50 [5] | Ki [5] | IC50 (Adenosine receptor A2a)

CN(C)CC[C@@H](c1ccc(Cl)cc1)c1ccccn1 [DEXCHLORPHENIRAMINE]
Not Active: IC50 [1] | IC50 [2] | Ki [2] | IC50 ([3]; cho-k1) | IC50 [4] | IC50 [5] | Ki [5] | IC50 (Adenosine receptor A2a)
8370 nM: IC50 (Histamine H2 receptor; read-out: IC50)
8230 nM: Ki (Histamine H2 receptor; read-out: Ki)

C[C@@H]1CC[C@@]2(OC1)O[C@H]1[C@@H](O)[C@H]3[C@@H]4CC[C@H]5C[C@@H](O[C@@H]6O[C@H](CO)[C@H](O[C@@H]7O[C@H](CO)C(O)[C@H](O[C@@H]8OC[C@@H](O)[C@H](O)[C@H]8O)[C@H]7O[C@@H]7O[C@H](CO)[C@H](O)[C@H](O[C@@H]8O[C@H](CO)[C@@H](O)[C@H](O)[C@H]8O)[C@H]7O)[C@H](O)[C@H]6O)[C@H](O)C[C@]5(C)[C@H]4CC[C@]3(C)[C@H]1[C@@H]2C (some centres undefined) [DIGITONIN]
Not Active: IC50 [1] | IC50 [2] | Ki [2] | IC50 ([3]; cho-k1) | IC50 [4] | IC50 (Histamine H2 receptor; cho-k1) | IC50 [5] | Ki [5] | IC50 (Adenosine receptor A2a)

OC(CCCN1CCCCC1)(c1ccccc1)c1ccccc1 [DIPHENIDOL]
Not Active: IC50 [1] | IC50 [2] | Ki [2] | IC50 ([3]; cho-k1) | IC50 [4] | IC50 (Histamine H2 receptor; cho-k1) | IC50 [5] | Ki [5] | IC50 (Adenosine receptor A2a)

C[C@H]1O[C@@H](n2cc(F)c(=O)[nH]c2=O)[C@H](O)[C@@H]1O [DOXIFLURIDINE]
Not Active: IC50 [1] | IC50 [2] | Ki [2] | IC50 ([3]; cho-k1) | IC50 [4] | IC50 (Histamine H2 receptor; cho-k1) | IC50 [5] | Ki [5] | IC50 (Adenosine receptor A2a)

Cn1c(=O)c2c(ncn2CC(O)CO)n(C)c1=O (centres undefined) [DYPHYLLINE]
Not Active: IC50 [1] | IC50 [2] | Ki [2] | IC50 ([3]; cho-k1) | IC50 [4] | IC50 (Histamine H2 receptor; cho-k1) | IC50 [5] | Ki [5] | IC50 (Adenosine receptor A2a)

CC[C@H]1CN2CCc3cc(OC)c(OC)cc3[C@@H]2C[C@@H]1C[C@H]1NCCc2cc(OC)c(OC)cc21 [EMETINE]
Not Active: IC50 [1] | IC50 [2] | Ki [2] | IC50 ([3]; cho-k1) | IC50 [4] | IC50 (Histamine H2 receptor; cho-k1) | IC50 [5] | Ki [5] | IC50 (Adenosine receptor A2a)

C[C@@H](CO)NC(=O)[C@@H]1C=C2c3cccc4[nH]cc(c34)C[C@H]2N(C)C1 [ERGONOVINE]
Not Active: IC50 [1] | IC50 [2] | Ki [2] | IC50 ([3]; cho-k1) | IC50 [4] | IC50 (Histamine H2 receptor; cho-k1) | IC50 [5] | Ki [5] | IC50 (Adenosine receptor A2a)

COC(=O)CCc1ccc(OCC(O)CNC(C)C)cc1 (centres undefined) [ESMOLOL]
197 nM: IC50 ([3]; read-out: IC50)
Not Active: IC50 [1] | IC50 [2] | Ki [2] | IC50 [4] | IC50 (Histamine H2 receptor; cho-k1) | IC50 [5] | Ki [5] | IC50 (Adenosine receptor A2a)
114 nM: Ki [3]

CCC1(C)CC(=O)NC1=O (centres undefined) [ETHOSUXIMIDE]
Not Active: IC50 [1] | IC50 [2] | Ki [2] | IC50 ([3]; cho-k1) | IC50 [4] | IC50 (Histamine H2 receptor; cho-k1) | IC50 [5] | Ki [5] | IC50 (Adenosine receptor A2a)

C#C[C@]1(OC(C)=O)CC[C@H]2[C@@H]3CCC4=C[C@@H](OC(C)=O)CC[C@@H]4[C@H]3CC[C@@]21C [ETHYNODIOL DIACETATE]
Not Active: IC50 [1] | IC50 [2] | Ki [2] | IC50 ([3]; cho-k1) | IC50 [4] | IC50 (Histamine H2 receptor; cho-k1) | IC50 [5] | Ki [5] | IC50 (Adenosine receptor A2a)
